Measurements taken from PubChem BioAssay (NCI).
Values joined by “and” are separate entries in the source; they are usually repeats but may differ in a detail not shown here. Identical values can stand only once.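 Each compound was tested at five concentrations against cells in 96-well plates for 48 hours. The concentration for 50% growth inhibition is given as GI50. TGI denotes the concentration required for complete inhibition of growth.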

Key:
Assay in all cases: NCI tumour cell line growth inhibition, 48 h
[1] = tested on: A498 renal
[2] = tested on: HCT-116 colon
[3] = tested on: KM12 colon
[4] = tested on: MALME-3M melanoma
[5] = tested on: NCI-H23 lung
[6] = tested on: NCI-H460 lung
[7] = tested on: RXF 393 renal
[8] = tested on: SK-MEL-2 melanoma
[9] = tested on: SK-MEL-28 melanoma
[10] = tested on: SNB-19 CNS

SMILES	TGI [1]	TGI [2]	TGI [3]	TGI [4] [µM]	TGI [5]	TGI [6]	TGI [7]	TGI [8]	TGI [9]	TGI [10]	GI50 [1] [µM]	GI50 [2] [µM]	GI50 [3] [µM]	GI50 [4] [µM]	GI50 [5] [µM]	GI50 [6] [µM]	GI50 [7] [µM]	GI50 [8] [µM]	GI50 [9] [µM]	GI50 [10] [µM]
NC1CCCCC1.[O]=[Ge].[O]=[Ge].[O]=[Ge][OH].[O]=[Ge][OH]	> 100 µM	> 100 µM	> 100 µM	> 100	> 100 µM	> 100 µM	> 100 µM	> 100 µM	> 100 µM	> 100 µM	–	–	–	–	–	–	–	–	–	–
CN1CCN(c2ccc(NC(=O)c3nc4ccc5[nH]ncc5c4c4c3CCCC4)cc2C(F)(F)F)CC1	> 50 µM	1.5 µM	5.27 µM	1.64	6.71 µM	1.83 µM	1.55 µM	19.1 µM	1.71 µM	4.58 µM	> 50	0.814	1.47	0.76	1.5	0.956	0.798	7.33	0.941	1.39
CCCc1c(CC)c(=N)c2ccccc2n1C	> 100 µM	> 100 µM	> 100 µM	> 100	> 100 µM	> 100 µM	> 100 µM	> 100 µM	> 100 µM	> 100 µM	22.8	> 100	39.3	42.6	37.7	> 100	> 100	> 100	69.2	34.5
C=C(CCCCCCCCC)CC(=O)SCCNC(=O)CCNC(=O)C(O)C(C)(C)COP(=O)(O)OP(=O)(O)OCC1OC(n2cnc3c(N)ncnc32)C(O)C1OP(=O)(O)O (configuration not stated)	> 100 µM	> 100 µM	> 100 µM	> 100	> 100 µM	> 100 µM	> 100 µM	99.3 µM	21.6 µM	> 100 µM	–	–	–	–	–	–	–	–	–	–
COc1ccccc1/C=C1\CCC(CCN(C)C)(C2=CCCC2)C1=O (configuration not stated)	32.1 µM	25.3 µM	33 µM	30.3	> 100 µM	31.4 µM	27.3 µM	35.6 µM	32.7 µM	31.1 µM	–	–	–	–	–	–	–	–	–	–
CCO/C=C/C(C)C1(C(=O)OCC)CCCCC1=O (configuration not stated)	> 100 µM	> 100 µM	> 100 µM	> 100	> 100 µM	> 100 µM	> 100 µM	> 100 µM	> 100 µM	> 100 µM	–	–	–	–	–	–	–	–	–	–
CCC(=O)O[C@H]1CC[C@H]2[C@@H]3CC[C@H]4CC(=O)[C@H](C)C[C@]4(C)[C@H]3CC[C@]12C	> 100 µM	> 42.6 µM	> 100 µM	> 100	> 100 µM	97.4 µM	> 100 µM	> 100 µM	> 100 µM	> 100 µM	28	4.49	34.6	45.7	43.6	13	30.5	32	> 88.7	> 100
Oc1ccc(C(c2ccc(O)cc2)c2ccc(Cl)cn2)cc1	26.5 µM	> 100 µM	> 100 µM	> 100	0.983 µM	> 100 µM	1.65 µM	60.3 µM	> 100 µM	> 100 µM	0.344	0.473	0.463	24.6	0.0959	31.6	0.0593	4.31	28	19.1
O=Cc1ccccc1OCCOc1cc(OCCOc2ccccc2C=O)c(OCCOc2ccccc2C=O)cc1OCCOc1ccccc1C=O	> 100 µM	> 71.2 µM	> 100 µM	> 100	> 100 µM	> 100 µM	> 100 µM	> 100 µM	> 100 µM	> 82.9 µM	–	–	–	–	–	–	–	–	–	–
CCCC(=O)Nc1cc(C(=O)N2C[C@@H]3C[C@]34C2=CC(=O)c2[nH]cc(C)c24)n(COC)c1	19.2 µM and 25.1 µM	50 µM and 11.8 µM	20.4 µM and 21.5 µM	10.9	9.19 µM and 3.6 µM	16.6 µM and 7.35 µM	9.21 µM and 3.33 µM	12.2 µM and 3.46 µM	34.2 µM and 10.7 µM	50 µM and 14.5 µM	–	2.69	4.58	–	1.38	2.62	–	1.98	3.08	3.36
CCOC(=O)C1(Br)C(c2ccccc2)NC(=O)NC1(C)Br (configuration not stated)	> 100 µM	> 100 µM	> 100 µM	> 100	> 100 µM	> 100 µM	> 100 µM	> 100 µM	> 100 µM	> 66 µM	–	–	–	–	–	–	–	–	–	–
CCCCCCCNc1nc(C(=O)OCC)ncc1-c1ccc(C(F)(F)F)cc1	> 100 µM	> 100 µM	> 100 µM	> 100	> 100 µM	32.7 µM	71.1 µM	66.7 µM	> 100 µM	> 100 µM	16	32	33.6	41.8	42.2	14.7	19	26.6	66.2	33.4
O=C(O)[C@@H]1[C@H](C(=O)O)[C@H](C(=O)O)C[C@@H]1C(=O)O	> 100 µM	> 100 µM	> 100 µM	> 100	> 100 µM	> 100 µM	> 100 µM	> 100 µM	> 100 µM	> 100 µM	–	–	–	–	–	–	–	–	–	–
CC1CC2CC(=O)CC3(C1)C2CCCN3CCCO (configuration not stated)	> 100 µM	> 100 µM	> 100 µM	> 100	> 100 µM	> 100 µM	> 100 µM	> 100 µM	> 100 µM	> 100 µM	–	–	–	–	–	–	–	–	–	–
COC(=O)C1C(O)CC(c2ccccn2)N(Cc2ccccc2)C1c1ccccn1 (configuration not stated)	> 100 µM	> 100 µM	> 100 µM	> 100	> 100 µM	> 100 µM	> 100 µM	> 100 µM	> 100 µM	> 100 µM	–	–	–	–	–	–	–	–	–	–
O=C(c1ccc2ccccc2c1)c1c(C(F)(F)F)n([O-])c2cc(F)c(F)cc2[n+]1=O	32.1 µM	3.02 µM	8.1 µM	2.65	9.29 µM	88.9 µM	2.97 µM	5.52 µM	12.7 µM	4.1 µM	16	1.5	0.937	1.13	2.62	3.74	1.49	2.16	4.22	2
